Where two headings read alike, the source gives them in different places.
How the values were obtained:
[1] = target: LEDGF/p75-HIV-1 integrase interaction (Human immunodeficiency virus type 1 group M subtype B (isolate HXB2) (HIV-1), UniProt P04585); test: AlphaScreen assay of LEDGF-integrase interaction inhibition; assay type: binding
Method: Alphascreen Assay to Measure the LEDGF-Integrase Interaction Inhibitory Activity of Compounds of the Invention
The AlphaScreen assay was performed according to the manufacturer's protocol (Perkin Elmer, Benelux). Reactions were performed in 25 μl final volume in 384-well Optiwell™ microtiter plates (Perkin Elmer). The reaction buffer contained 25 mM Tris-HCl (pH 7.4), 150 mM NaCl, 1 mM MgCl2, 0.01% (v/v) Tween-20 and 0.1% (w/v) bovine serum albumin. His6-tagged integrase (300 nM final concentration) was incubated with the compounds for 30 min at 4° C. The compounds were added at varying concentrations spanning a wide range from 0.1 up to 100 μM. Afterwards 100 nM flag-LEDGF/p75 was added and incubation was prolonged for an additional hour at 4° C. Subsequently 5 μl of Ni-chelate-coated acceptor beads and 5 μl anti-flag donor beads were added to a final concentration of 20 μg/ml of both beads. Proteins and beads were incubated for 1 h at 30° C. in order to allow association to occur. Exposure of the reaction to direct light was omitted as much as possible and the emission of light from the acceptor beads was measured in the EnVision plate reader (Perkin Elmer, Benelux) and analyzed using the EnVision manager software. IN/DNA binding was analyzed in a similar setting using His6-tagged integrase (1 μM final concentration) and an oligodeoxynucleotide mimicking the IN ELISA oligonucleotide substrate (30 nM final concentration). Counterscreens with JPO2 or PogZ, respectively, were essentially performed as described previously.
His6-tagged HIV-1 integrase, 3xflag-tagged LEDGF/p75, MBP-JPO2 and MBP-PogZ were purified for AlphaScreen applications as described previously 23,25,56.

[2] = test system: HIV-1 (IIIB), HIV-1 (NL4.3); test: microbe, parasite or virus in culture; assay type: cell-based; settings: for EC50: Human immunodeficiency virus 1, IIIB, MT4, MT-4 cells, 50% protection against HIV-induced cytopathogenic effect, MTT; for SI: selectivity index, ratio of CC50 to EC50
Method: (§1) A rapid and automated assay procedure was used for the in vitro evaluation of anti-HIV agents. An HTLV-1 transformed T4-cell line MT-4, which was previously shown to be highly susceptible to and permissive for HIV infection, served as the target cell line. Inhibition of the HIV-induced cytopathogenic effect was used as the end point. The viabitlity of both HIV- and mock-infected cells was assessed spectrophotometrically via in situ reduction of 3-(4,5-dimethylthiazol-2-yl)-2,5-diphenyltetrazolium bromide (MTT). The 50% cytotoxic concentration (CC50 in μM or μg/ml) was defined as the concentration of compound that reduced the absorbance of the mock-infected control sample by 50%. The percent protection achieved by the compound in HIV-infected cells was calculated by the following formula:
(§2) [formula] whereby (ODT)HIV is the optical density measured with a given concentration of the test compound in HIV-infected cells; (ODC)HIV is the optical density measured for the control untreated HIV-infected cells; (ODC)MOCK is the optical density measured for the control untreated mock-infected cells; all optical density values were determined at 540 nm. The dose achieving 50% protection according to the above formula was defined as the 50% inhibitory concentration (EC50 in μM or μg/ml). The ratio of CC50 to EC50 was defined as the selectivity index (SI). […] Examples of inhibition of cell proliferation by particular compounds of the invention can be found by looking at the respective CC50 values in the MT-4 cell line. Cells:
(§3) MT-4 cells (Miyoshi et al., 1982) were grown and maintained in RPMI 1640 medium supplemented with 10% heat-inactivated fetal calf serum, 2 mM I-glutamine, 0.1% sodium bicarbonate, and 20 μg of gentamicin per ml. Alternatively, the MT-4 cells may also be grown in RPMI 1640 medium supplemented with 10% FCS and 20 μg/ml of gentamicin (RPMI-complete).
The HIV-1 (IIIB) strain (Popovic et al., 1984) as well as the HIV-1 (NL4.3) strain (Adachi et al., J. Virol. 59, 284-291 (1986)) were used.

[3] = Cytotoxicity in mock-infected MT-4 cells (MTT); assay type: cell-based; settings: human, 50% cytotoxic concentration
Method: as §1, §2, §3

[4] = His6-tagged integrase 300 nM, flag-LEDGF/p75 100 nM, read-out: Alphascreen IC50

Compound | IC50 [1, 4] [µM] | EC50 [2] [µM] | SI [2] | CC50 [3] [µM] | IC50 [1] [µM]
CCCC(C(=O)O)c1c(C)nc2sc3c(c2c1-c1ccc(C)cc1)CCC3C (stereo not drawn) [Cpd 128, 2-[2-methyl-7-methyl-4-p-tolyl-6,7-dihydro-5H-cyclopenta[4,5]thieno[2,3-b]pyridin-3-yl]pentanoic acid] | 11.3 | 4.07 | 30 | 121 | –
CCCC(C(=O)O)c1c(C)nc2sc3c(c2c1-c1ccco1)CCC3 (stereo not drawn) [Cpd 129, 2-[2-Methyl-4-(2-furyl)-6,7-dihydro-5H-cyclopenta[4,5]thieno[2,3-b]pyridin-3-yl]pentanoic acid] | 48 | > 130 | – | 130 | –
CCCC(C(=O)O)c1c(C)nc2sc3c(c2c1-c1cccs1)CCC3 (stereo not drawn) [Cpd 130, 2-[2-Methyl-4-(2-thienyl)-6,7-dihydro-5H-cyclopenta[4,5]thieno[2,3-b]pyridin-3-yl]pentanoic acid] | 30.6 | 29.6 | 4 | 130 | –
CCCC(C(=O)O)c1c(C)nc2sc3c(c2c1-c1ccc(OC)cc1)CCC3 (stereo not drawn) [Cpd 131, 2-[2-Methyl-4-(p-anisyl)-6,7-dihydro-5H-cyclopenta[4,5]thieno[2,3-b]pyridin-3-yl]pentanoic acid] | – | 2.43 | 52 | 127 | 4.54
CCCC(C(=O)O)c1c(C)nc2sc3c(c2c1-c1ccc(C)cc1)CCOC3 (stereo not drawn) [Cpd 133, 2-[2-Methyl-4-(p-tolyl)-5,8-dihydro-6H-7-oxa-9-thia-1-aza-fluoren-3-yl]pentanoic acid] | 7.8 | 18 | 8 | 165 | –
Cc1ccc(-c2c(C(Cc3ccccc3)C(=O)O)c(C)nc3sc4c(c23)CCC4)cc1 (stereo not drawn) [Cpd 134, 2-[2-Methyl-4-(4-methylphenyl)-6,7-dihydro-5H-cyclopenta[4,5]thieno[2,3-b]pyridin-3-yl]-3-phenylpropanoic acid] | 84.1 | > 114 | – | 114 | –
CCCC(C(=O)O)c1c(C)nc2sc3c(c2c1-c1ccc(C)cc1)CCCCC3 (stereo not drawn) [Cpd 135] | – | 42.4 | 3 | 109 | 55.8
Cc1ccc(-c2c(C(CC(C)C)C(=O)O)c(C)nc3sc4c(c23)CCCC4)cc1 (stereo not drawn) [Cpd 136, 2-[2-Methyl-4-(p-tolyl)-5,6,7,8-tetrahydro[1]benzothieno[2,3-b]pyridin-3-yl]-4-methylpentanoic acid] | 4.34 | 1.02 | 85 | 86.4 | –
CCCC(C(=O)O)c1c(C)nc2sc3c(c2c1-c1ccccc1Cl)CCCC3 (stereo not drawn) [Cpd 137, 2-[2-Methyl-4-(2-chlorophenyl)-5,6,7,8-tetrahydro[1]benzothieno[2,3-b]pyridin-3-yl]pentanoic acid] | 51.9 | > 111 | – | 111 | –
CCCC(C(=O)O)c1c(C)nc2sc3c(c2c1-c1cccc(Cl)c1)CCCC3 (stereo not drawn) [Cpd 138, 2-[2-Methyl-4-(3-chlorophenyl)-5,6,7,8-tetrahydro[1]benzothieno[2,3-b]pyridin-3-yl]pentanoic acid] | 39.9 | 43.3 | 2 | 100 | –
CCCC(C(=O)O)c1c(C)nc2sc3c(c2c1-c1ccc(Cl)c(Cl)c1)CCCC3 (stereo not drawn) [Cpd 139, 2-[2-Methyl-4-(3,4-dichlorophenyl)-5,6,7,8-tetrahydro[1]benzothieno[2,3-b]pyridin-3-yl]pentanoic acid] | 9.24 | 5.32 | 10 | 55.1 | –
CCCC(C(=O)O)c1c(C)nc2sc3c(c2c1-c1cccc(C(F)(F)F)c1)CCCC3 (stereo not drawn) [Cpd 140, 2-[2-Methyl-4-(3-trifluoromethylphenyl)-5,6,7,8-tetrahydro[1]benzothieno[2,3-b]pyridin-3-yl]pentanoic acid] | 18.1 | 28.2 | 4 | 100 | –

Reference: US8785638B2, “Thieno [2, 3-B] pyridine derivatives as viral replication inhibitors” (Katholieke Universiteit Leuven, priority 2009, dated 2014)
